In ChEMBL document CHEMBL1201862, “PubChem BioAssay data set” (2004):
“And” between values parts separate entries of the source, which are not always exact repeats. Identical values can stand only once.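 Each compound was tested at five concentrations against cells in 96-well plates for 48 hours. Abbreviation: GI50, concentration required for 50% inhibition of growth.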 The source made the active and inactive calls. Rule as the data show it: active = GI50 up to about 1.1 µM and inactive = higher.

Tests used:
Assay in all cases: inhibition of tumour cell growth, NCI panel, 48 h
ACHN = tested on: ACHN
TK-10 = tested on: TK-10
SF-539 = tested on: SF-539
BT-549 = tested on: BT-549
HCT-116 = tested on: HCT-116
RXF 393 = tested on: RXF 393
LOX IMVI = tested on: LOX IMVI
DU-145 = tested on: DU-145
EKVX = tested on: EKVX
CCRF-CEM = tested on: CCRF-CEM
HL-60 = tested on: HL-60
A549 = tested on: A549
786-0 = tested on: 786-0
IGROV-1 = tested on: IGROV-1
NCI-H226 = tested on: NCI-H226
KM12 = tested on: KM12
UACC-257 = tested on: UACC-257
HCT-15 = tested on: HCT-15
LXFL 529 = tested on: LXFL 529

Compound | GI50 (ACHN) | GI50 (TK-10) | GI50 (SF-539) | GI50 (BT-549) | GI50 (HCT-116) | GI50 (RXF 393) | GI50 (LOX IMVI) | GI50 (DU-145) | GI50 (EKVX) | GI50 (CCRF-CEM) | GI50 (HL-60) | GI50 (A549) | GI50 (786-0) | GI50 (IGROV-1) | GI50 (NCI-H226) | GI50 (KM12) | GI50 (UACC-257) | GI50 (HCT-15) | GI50 (LXFL 529)
C=C(Cl)C(Cl)(CBr)CCC(Br)C(C)(C)Cl (stereo not given) | 1.7 µM (inactive) and 1.18 µM (inactive) and 1.32 µM (inactive) | 3.43 µM (inactive) and 1.93 µM (inactive) and 2.07 µM (inactive) | 1.95 µM (inactive) and 446 nM (active) and 1.27 µM (inactive) | 2.05 µM (inactive) and 1.04 µM (active) and 1.79 µM (inactive) | 508 nM (active) and 1.95 µM (inactive) and 448 nM (active) | 991 nM (active) and 190 nM (active) and 1.11 µM (active) | 19.1 µM (inactive) and 5.7 µM (inactive) and 15.6 µM (inactive) | 2.76 µM (inactive) and 1.38 µM (inactive) | 1.79 µM (inactive) and 7.05 µM (inactive) and 3.31 µM (inactive) | 5.08 µM (inactive) and 12.5 µM (inactive) and 4.5 µM (inactive) | 635 nM (active) and 733 nM (active) and 2.42 µM (inactive) | 4.36 µM (inactive) and 2.48 µM (inactive) and 3.09 µM (inactive) | 640 nM (active) and 175 nM (active) and 247 nM (active) | 11.9 µM (inactive) and 21.5 µM (inactive) and 8.41 µM (inactive) | 18.2 µM (inactive) and 17.5 µM (inactive) and 16 µM (inactive) | 1.34 µM (inactive) and 2.32 µM (inactive) and 1.43 µM (inactive) | 2.78 µM (inactive) and 1.66 µM (inactive) and 2.1 µM (inactive) | 2.07 µM and 13.3 µM and 3.18 µM | 
O=C(CCCl)NN=C1NCCN1 | > 100 µM (inactive) | > 100 µM (inactive) | > 100 µM (inactive) | > 100 µM (inactive) | > 100 µM (inactive) | > 100 µM (inactive) | > 100 µM (inactive) | > 100 µM (inactive) | > 100 µM (inactive) | > 100 µM (inactive) | > 100 µM (inactive) | > 100 µM (inactive) | > 100 µM (inactive) | > 100 µM (inactive) | > 100 µM (inactive) | > 100 µM (inactive) | > 100 µM (inactive) | > 100 µM | 
O=C1/C(=C\c2ccc([N+](=O)[O-])o2)SC2NC(COc3ccc(Cl)cc3)=NN12 (stereo not given) | 1.96 µM (inactive) | 17.6 µM (inactive) | 4.1 µM (inactive) | 9.84 µM (inactive) | 3.4 µM (inactive) | 17.6 µM (inactive) | 2.93 µM (inactive) | 12.9 µM (inactive) | 5.83 µM (inactive) | 1.99 µM (inactive) | 2.16 µM (inactive) | 18.3 µM (inactive) | 3.4 µM (inactive) | 3.15 µM (inactive) | 18.6 µM (inactive) | 13.7 µM (inactive) | 5.09 µM (inactive) | 2.07 µM | 
O=C(Nc1nnc(-c2c(Cl)c(Cl)c(Cl)c(Cl)c2-c2nc3cc(C(=O)c4ccccc4)ccc3[nH]2)o1)c1ccccc1 | 19.5 µM (inactive) | 21.8 µM (inactive) | 11.5 µM (inactive) | 23.5 µM (inactive) | 23.3 µM (inactive) | 12.3 µM (inactive) | 15.1 µM (inactive) | 17.5 µM (inactive) | 17.9 µM (inactive) | 8.36 µM (inactive) | 11.4 µM (inactive) | 14.9 µM (inactive) | 16.8 µM (inactive) | 13.6 µM (inactive) | 16.7 µM (inactive) | 23.2 µM (inactive) | 23.2 µM (inactive) | 9.98 µM | 
COc1ccc(-c2oc3cc(OC)c(OC)c(O)c3c(=O)c2OC)cc1 | 33.3 µM (inactive) | 34.1 µM (inactive) | 30.9 µM (inactive) | 18 µM (inactive) | > 100 µM (inactive) | 22.7 µM (inactive) | 53.5 µM (inactive) | 58.7 µM (inactive) | 41.6 µM (inactive) | > 100 µM (inactive) | 29.4 µM (inactive) | > 100 µM (inactive) | 21.9 µM (inactive) | 18.7 µM (inactive) | 48.9 µM (inactive) | > 100 µM (inactive) | > 100 µM (inactive) | 40.5 µM | 
Cc1ccc(C(=O)NC2CCCCC2)cc1/N=N/N(C)C | > 100 µM (inactive) | > 100 µM (inactive) | > 100 µM (inactive) |  | > 100 µM (inactive) |  | > 100 µM (inactive) |  | > 100 µM (inactive) |  |  | > 100 µM (inactive) | > 100 µM (inactive) | > 100 µM (inactive) |  | > 100 µM (inactive) | > 100 µM (inactive) | > 100 µM | > 100 µM (inactive)
O=C1C=C2C(=NC34CCCCC3C(c3ccccc3)C3=C(c5ccccc5CC3)N24)c2ccccc21 (stereo not given) | > 10 µM (inactive) | > 10 µM (inactive) | > 10 µM (inactive) | > 10 µM (inactive) | > 10 µM (inactive) | > 10 µM (inactive) | > 10 µM (inactive) | > 10 µM (inactive) | > 10 µM (inactive) | > 10 µM (inactive) | > 10 µM (inactive) | > 10 µM (inactive) | > 10 µM (inactive) | > 10 µM (inactive) | > 10 µM (inactive) | > 10 µM (inactive) | > 10 µM (inactive) | > 10 µM | 
CCC(CS(=O)(=O)O)[N+](=O)[O-] (stereo not given) | > 100 µM (inactive) | > 100 µM (inactive) | > 100 µM (inactive) | > 100 µM (inactive) | > 100 µM (inactive) | > 100 µM (inactive) | > 100 µM (inactive) | > 100 µM (inactive) | > 100 µM (inactive) | > 100 µM (inactive) | > 100 µM (inactive) | > 100 µM (inactive) | > 100 µM (inactive) | > 100 µM (inactive) | > 100 µM (inactive) | > 100 µM (inactive) | > 100 µM (inactive) | > 100 µM | 
CC1(C)CCC[C@@]2(C)C1CC[C@@]1(CO)O[C@H](C3=CC(=O)OC3O)C[C@H]12 (stereo not given in full) | 14 µM (inactive) | 19.7 µM (inactive) | 19.3 µM (inactive) | 8.26 µM (inactive) | 6.1 µM (inactive) | 11 µM (inactive) | 1.56 µM (inactive) | 13.3 µM (inactive) | 22.9 µM (inactive) | 2.74 µM (inactive) | 1.66 µM (inactive) | 30.5 µM (inactive) | 15 µM (inactive) | 18.1 µM (inactive) | 18.2 µM (inactive) | 20.8 µM (inactive) | 14.9 µM (inactive) | 7.57 µM | 
CC(=O)NNc1nc(C)c(C(/C=C/c2ccc([N+](=O)[O-])cc2)=N/N)s1 | > 100 µM (inactive) | 37.9 µM (inactive) | > 100 µM (inactive) | > 100 µM (inactive) | > 100 µM (inactive) | 55.3 µM (inactive) | 86.9 µM (inactive) | 96.4 µM (inactive) | 94.4 µM (inactive) | > 100 µM (inactive) | 21 µM (inactive) | > 100 µM (inactive) | > 100 µM (inactive) | 54 µM (inactive) | > 100 µM (inactive) | > 100 µM (inactive) | 88.1 µM (inactive) | > 100 µM | 
COC(=O)C1=C(C(=O)OC)N(c2ccncc2)C(c2ccco2)=CC1c1ccccc1[N+](=O)[O-] (stereo not given) | 2.01 µM (inactive) | 2.75 µM (inactive) | 1.75 µM (inactive) | 6.7 µM (inactive) | 1.6 µM (inactive) | 4.65 µM (inactive) | 1.72 µM (inactive) | 5.24 µM (inactive) | 6.59 µM (inactive) | 2.21 µM (inactive) | 2.46 µM (inactive) | 10.3 µM (inactive) | 1.7 µM (inactive) | 1.95 µM (inactive) | 4.99 µM (inactive) | 1.6 µM (inactive) | 2.02 µM (inactive) | 1.89 µM | 
N#Cc1nc(-c2cc([N+](=O)[O-])cc([N+](=O)[O-])c2)oc1N | > 10 µM (inactive) | > 10 µM (inactive) | > 10 µM (inactive) | > 10 µM (inactive) | > 10 µM (inactive) | > 10 µM (inactive) | > 10 µM (inactive) | > 10 µM (inactive) | > 10 µM (inactive) | > 10 µM (inactive) | > 10 µM (inactive) | > 10 µM (inactive) | > 10 µM (inactive) | > 10 µM (inactive) | > 10 µM (inactive) | > 10 µM (inactive) | > 10 µM (inactive) | > 10 µM | 
O=C(NCCc1n[nH]c2c1C(=O)C=C(Nc1ccccc1)C2=O)OCc1ccccc1 | > 100 µM (inactive) | > 100 µM (inactive) | > 100 µM (inactive) | > 100 µM (inactive) | 97.3 µM (inactive) | > 100 µM (inactive) | > 100 µM (inactive) | > 100 µM (inactive) | > 100 µM (inactive) | > 100 µM (inactive) | > 100 µM (inactive) | > 100 µM (inactive) | 47.1 µM (inactive) | > 100 µM (inactive) | > 100 µM (inactive) | > 100 µM (inactive) | > 100 µM (inactive) | > 100 µM | 
NCCCNCCCCN1CC1 | 1.3 µM (inactive) | 5.96 µM (inactive) | 0.836 µM (active) | 5.4 µM (inactive) | 6.92 µM (inactive) | 0.705 µM (active) | 0.637 µM (active) | 2.12 µM (inactive) | 4.61 µM (inactive) | 0.836 µM (active) | 0.601 µM (active) | 9.57 µM (inactive) | 0.713 µM (active) | 3.84 µM (inactive) | 8.49 µM (inactive) | 6.98 µM (inactive) | 1.39 µM (inactive) | 8.41 µM | 
COC(=O)c1ccc(C)cc1C1CN=NC12Cc1cccc(C)c1C2=O (stereo not given) | 38.3 µM (inactive) | > 100 µM (inactive) | 90.4 µM (inactive) | 25.6 µM (inactive) | 42.3 µM (inactive) | > 100 µM (inactive) | 28.6 µM (inactive) | 65.2 µM (inactive) | 27.6 µM (inactive) | 31.6 µM (inactive) | 20.2 µM (inactive) | 41.1 µM (inactive) | > 100 µM (inactive) | 53.1 µM (inactive) | 25.1 µM (inactive) | 26.7 µM (inactive) | 29.7 µM (inactive) | 47.2 µM | 
